Reference: patent publication US5422126A, “Halogen compositions for water treatment and method of preparation thereof” (priority 1993, dated 1995)
Converted amounts (≈) assume the structure as drawn.

Legend:
[1] = Water solubility of solid halogenated hydantoins and amount of halogen dissolved in a saturated solution; settings: for Amount of halogen dissolved in saturated solution: saturated solution in water
[2] = physchem; settings: water

Structure (SMILES) | Amount of halogen dissolved in saturated solution [1] [mg/L as Cl2] | Water solubility ([1]; solid halogenated hydantoin in water) [%] | solubility ([1]; water) [µg/mL] | solubility [2] [µg/mL]
CC1(C)C(=O)N(Cl)C(=O)N1Br [Bromo-chlorodimethylhydantoin, bromochlorodimethylhydantoin] | 825 | 0.15 | – | –
CC1(C)C(=O)N(Br)C(=O)N1Br [Dibromodimethylhydantion, 1,3-dibromo-5,5-dimethylhydantoin] | 542 | – | 1100 (≈ 3.85 mM) | –
CC1(C)C(=O)N(Cl)C(=O)N1Cl [Dichlorodimethylhydantoin, dichlorodimethylhydantoin] | – | – | – | 2100 (≈ 10.7 mM)
